Experimental data as given in patent publication US10144706B2 (BRISTOL-MYERS SQUIBB COMPANY, priority 2016, dated 2018).
pIC50: −log10 of the molar value. Where two headings read alike, the source gives them in different places.

Molecular target: T1, PD-1/PD-L1 interaction (PD-1-Ig / PD-L1-His) (Homo sapiens, UniProt Q9NZQ7)
T1 construct: hPDL1(18-239)-TVMV-His; TVMV protease site linker (C); made in house; host or cells: HEK293T
Assay: PD-1/PD-L1 Homogenous Time-Resolved Fluorescence (HTRF) binding assay
Details: PD-L1-His 10 nM, PD-1-Ig 20 nM, read-out: Range or IC50
How it was run: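 Human PD-L1-His (10 nM final) was pre-incubated with inhibitor for 15 min, then PD-1-Ig (20 nM final) was added for a further 15 min in dPBS with 0.1% BSA and 0.05% Tween-20. Binding was detected by HTRF using Eu-cryptate anti-Ig (1 nM) and APC anti-His (20 nM).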

T1 sequence (Q9NZQ7 with tags, fused parts or gaps): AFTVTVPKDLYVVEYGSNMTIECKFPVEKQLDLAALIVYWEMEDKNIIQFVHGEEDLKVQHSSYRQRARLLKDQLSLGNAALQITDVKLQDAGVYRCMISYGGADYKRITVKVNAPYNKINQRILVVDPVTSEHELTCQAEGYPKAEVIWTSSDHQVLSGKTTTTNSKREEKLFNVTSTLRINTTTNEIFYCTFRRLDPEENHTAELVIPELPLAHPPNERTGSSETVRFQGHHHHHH

Cc1cc(OCc2cccc(-c3cccc(COc4cc(C)c(CNC(C)(CO)CO)cc4C)c3C)c2C)c(C)cc1CNC(C)(CO)CO [Example 5001, 2,2′-((((((2,2′-dimethyl-[1,1′-biphenyl]-3,3′-diyl)bis(methylene))bis(oxy))bis(2,5-dimethyl-4,1-phenylene))bis(methylene))bis(azanediyl))bis(2-methylpropane-1,3-diol)] gave a pIC50 (IC50 range class) of 7.70 to 10.40.
Cc1c(OCCCN[C@@H](Cc2ccccn2)C(=O)O)cccc1-c1cccc(OCCCN2CC[C@@H](O)C2)c1C [Example 2116, (S)-2-((3-((3′-(3-((R)-3-hydroxypyrrolidin-1-yl)propoxy)-2,2′-dimethyl-[1,1′-biphenyl]-3-yl)oxy)propyl)amino)-3-(pyridin-2-yl)propanoic acid] was tested, and the pIC50 (IC50 range class) was 6.00 to 7.05.
Cc1c(OCCCN2CC[C@@H](O)C2)cccc1-c1cccc(OCC2CCCN(C)C2)c1C (stereo partly drawn) [Example 3029, (3R)-1-(3-((2,2′-dimethyl-3′-((1-methylpiperidin-3-yl)methoxy)-[1,1′-biphenyl]-3-yl)oxy)propyl)pyrrolidin-3-ol] gave a pIC50 (IC50 range class) of 7.70 to 10.40.
Work on C[C@](CO)(NCc1cc(Cl)c(OCc2cccc(-c3cccc(COc4cc(OCc5cncc(C#N)c5)c(CO)cc4Cl)c3Cl)c2Cl)cc1OCc1cncc(C#N)c1)C(=O)O [Example 50400] yielded a pIC50 (IC50 range class) of 7.70 to 10.40.
Work on Cc1c(COc2cc(OCc3cncc(C#N)c3)c(C(=O)NCc3ccncn3)cc2Cl)cccc1-c1cccc(COc2cc(OCc3cncc(C#N)c3)c(C(=O)NCc3ccncn3)cc2Cl)c1C [Example 80090] yielded a pIC50 (IC50 range class) of 6.00 to 7.05.
Cc1c(OCCCN[C@@H](c2ccccc2)[C@H](O)CO)cccc1-c1cccc(OCCCN2CC[C@@H](O)C2)c1C [Example 2091, (2S,3S)-3-((3-((3′-(3-((R)-3-hydroxypyrrolidin-1-yl)propoxy)-2,2′-dimethyl-[1,1′-biphenyl]-3-yl)oxy)propyl)amino)-3-phenylpropane-1,2-diol] gave a pIC50 (IC50 range class) of 7.05 to 7.70.
For Cc1c(OCCCNCCN(C)C)cccc1-c1cccc(OCCCN2CC[C@@H](O)C2)c1C [Example 2007, (R)-1-(3-((3′-(3-((2-(dimethylamino)ethyl)amino)propoxy)-2,2′-dimethyl-[1,1′-biphenyl]-3-yl)oxy)propyl)pyrrolidin-3-ol], the pIC50 (IC50 range class) was 6.00 to 7.05.
For Cc1c(OCCCN2CC[C@@H](O)C2)cccc1-c1ccc2c(c1)OC(CCN1CC[C@@H](O)C1)CO2 (single isomer, unassigned) [Example 3030], the pIC50 (IC50 range class) was 7.70 to 10.40.
With Cc1c(COc2cc(OCc3cncc(C#N)c3)c(CN[C@@H](C(=O)O)[C@H](C)O)cc2Cl)cccc1-c1cccc(COc2cc(OCc3cncc(C#N)c3)c(CN[C@@H](C(=O)O)[C@@H](C)O)cc2Cl)c1C [Example 41130] the pIC50 (IC50 range class) was 7.70 to 10.40.
Work on Cc1c(COc2cc(OCc3ccc(-n4cccn4)nc3)c(CNC(CO)CO)cc2Cl)cccc1-c1cccc(COc2cc(OCc3ccc(-n4cccn4)nc3)c(CNC(CO)CO)cc2Cl)c1C [Example 5019, 2,2′-((((((2,2′-dimethyl-[1,1′-biphenyl]-3,3′-diyl)bis(methylene))bis(oxy))bis(2-((6-(1H-pyrazol-1-yl)pyridin-3-yl)methoxy)-5-chloro-4,1-phenylene))bis(methylene))bis(azanediyl))bis(propane-1,3-diol)] yielded a pIC50 (IC50 range class) of 7.05 to 7.70.
Compound Cc1c(OCCCNCC(O)CO)cccc1-c1cccc(OCCCN2CC[C@@H](O)C2)c1C (mixture of isomers) [Example 2059, 3-((3-((3′-(3-((R)-3-hydroxypyrrolidin-1-yl)propoxy)-2,2′-dimethyl-[1,1′-biphenyl]-3-yl)oxy)propyl)amino)propane-1,2-diol] has a pIC50 (IC50 range class) of 7.70 to 10.40.
With CC(=O)c1cc(Cl)c(OCc2cccc(-c3cccc(COc4cc(OCc5cncc(C#N)c5)c(CNC(C)(CO)C(=O)O)cc4Cl)c3C)c2C)cc1OCc1cncc(C#N)c1 (stereo not shown) [Example 60030] the pIC50 (numeric IC50) was 8.22.
Compound Cc1c(OCCCN(C)CCC(N)=O)cccc1-c1cccc(OCCCN(C)CCC(N)=O)c1C [Example 2076] has a pIC50 (IC50 range class) of 7.05 to 7.70.
In the case of Cc1c(OCCCN(C)C2CC(O)C2)cccc1-c1cccc(OCCCN(C)C2CC(O)C2)c1C (stereo not shown) [Example 2090, 3,3′-((((2,2′-dimethyl-[1,1′-biphenyl]-3,3′-diyl)bis(oxy))bis(propane-3,1-diyl))bis(methylazanediyl))bis(cyclobutan-1-ol)], the pIC50 (IC50 range class) was 7.05 to 7.70.
Cc1c(COc2cc(OCc3cncc(C#N)c3)c(CO)cc2Cl)cccc1-c1cccc(COc2cc(OCc3cncc(C#N)c3)c(CN[C@H](C(=O)O)[C@@H](C)[C@H](C)O)cc2Cl)c1C [Example 50340] showed a pIC50 (IC50 range class) of 7.70 to 10.40.
Cc1c(COc2cc(OCc3cncc(C#N)c3)c(CN(Cc3cncs3)C(CCO)C(=O)O)cc2Cl)cccc1-c1cccc(COc2cc(OCc3cncc(C#N)c3)c(CN(Cc3cncs3)C(CCO)C(=O)O)cc2Cl)c1C (stereo not shown) [Example 40990] was tested, and the pIC50 (IC50 range class) was 7.70 to 10.40.
In the case of N#Cc1cncc(COc2cc(OCc3cccc(-c4cccc(COc5cc(OCc6cncc(C#N)c6)c(C(=O)NCCO)cc5Cl)c4Cl)c3Cl)c(Cl)cc2C(=O)O)c1 [Example 90010], the pIC50 (IC50 range class) was 7.70 to 10.40.
Cc1c(OCCCNCCc2ccc(N)cc2)cccc1-c1cccc(OCCCN2CC[C@@H](O)C2)c1C [Example 2065, (R)-1-(3-((3′-(3-((4-aminophenethyl)amino)propoxy)-2,2′-dimethyl-[1,1′-biphenyl]-3-yl)oxy)propyl)pyrrolidin-3-ol] showed a pIC50 (IC50 range class) of 7.05 to 7.70.
Cc1c(COc2cc(OCc3cncc(C#N)c3)c(CO)cc2Cl)cccc1-c1cccc(COc2cc(OCc3cncc(C#N)c3)c(CN[C@H](CCO)C(=O)O)cc2Cl)c1C [Example 50210] showed a pIC50 (IC50 range class) of 7.70 to 10.40.
In the case of Cc1c(OCCCN(CCc2ccccn2)C[C@H](O)CO)cccc1-c1cccc(OCCCN(CCc2ccccn2)C[C@H](O)CO)c1C [Example 2101, (2S,2′S)-3,3′-((((2,2′-dimethyl-[1,1′-biphenyl]-3,3′-diyl)bis(oxy))bis(propane-3,1-diyl))bis((2-(pyridin-2-yl)ethyl)azanediyl))bis(propane-1,2-diol)], the pIC50 (IC50 range class) was 7.05 to 7.70.
Work on Cc1c(COc2cc(OCc3cc(F)cc(F)c3)c(CN[C@@H](CO)C(=O)O)cc2Cl)cccc1-c1cccc(COc2cc(OCc3cc(F)cc(F)c3)c(CN[C@@H](CO)C(=O)O)cc2Cl)c1C [Example 5008, (2S,2′S)-2,2′-((((((2,2′-dimethyl-[1,1′-biphenyl]-3,3′-diyl)bis(methylene))bis(oxy))bis(5-chloro-2-((3,5-difluorobenzyl)oxy)-4,1-phenylene))bis(methylene))bis(azanediyl))bis(3-hydroxypropanoic acid)] yielded a pIC50 (IC50 range class) of 7.05 to 7.70.
N#Cc1cncc(COc2cc(OCc3cccc(-c4cccc(COc5cc(OCc6cncc(C#N)c6)c(C(=O)N6CCS(=O)(=O)CC6)cc5Cl)c4Cl)c3Cl)c(Cl)cc2C(=O)N2CCS(=O)(=O)CC2)c1 [Example 80140] showed a pIC50 (IC50 range class) of 7.70 to 10.40.
Compound CC(=O)NC1CCN(CCCOc2cccc(-c3cccc(OCCCN4CC[C@@H](O)C4)c3C)c2C)C1 (stereo partly drawn) [Example 2107, N-(1-(3-((3′-(3-((R)-3-hydroxypyrrolidin-1-yl)propoxy)-2,2′-dimethyl-[1,1′-biphenyl]-3-yl)oxy)propyl)pyrrolidin-3-yl)acetamide] has a pIC50 (IC50 range class) of 7.05 to 7.70.
With Cc1cc(CN2CCCC[C@H]2C(=O)O)ccc1OCc1cccc(-c2cccc(COc3ccc(CN4CCCC[C@H]4C(=O)O)cc3C)c2C)c1C [Example 5500, (2S,2′S)-1,1′-(((((2,2′-dimethyl-[1,1′-biphenyl]-3,3′-diyl)bis(methylene))bis(oxy))bis(3-methyl-4,1-phenylene))bis(methylene))bis(piperidine-2-carboxylic acid)] the pIC50 (IC50 range class) was 6.00 to 7.05.
Compound Cc1c(COc2cc(OCc3cncc(C#N)c3)c(CNC(Cc3ccccc3)C(=O)O)cc2Cl)cccc1-c1cccc(COc2cc(OCc3cncc(C#N)c3)c(CNC(Cc3ccccc3)C(=O)O)cc2Cl)c1C (stereo not shown) [Example 40480] has a pIC50 (IC50 range class) of 7.70 to 10.40.
Cc1c(OCCCN2CC[C@@H](O)C2)cccc1-c1cccc(OCCCN2CC[C@@H](O)C2)c1C#N [Example 3025, 3,3′-bis(3-((R)-3-hydroxypyrrolidin-1-yl)propoxy)-2′-methyl-[1,1′-biphenyl]-2-carbonitrile] showed a pIC50 (IC50 range class) of 6.00 to 7.05.
In the case of Cc1c(OCCCN(C)C[C@H](O)CO)cccc1-c1cccc(OCCCN(C)C[C@H](O)CO)c1C [Example 2031, (2S,2′S)-3,3′-((((2,2′-dimethyl-[1,1′-biphenyl]-3,3′-diyl)bis(oxy))bis(propane-3,1-diyl))bis(methylazanediyl))bis(propane-1,2-diol)], the pIC50 (IC50 range class) was 7.70 to 10.40.
Compound N#Cc1cncc(COc2cc(OCc3cccc(-c4cccc(COc5cc(OCc6cncc(C#N)c6)c(C(=O)NCC6(CO)CC6)cc5Cl)c4Cl)c3Cl)c(Cl)cc2C(=O)NCC2(CO)CC2)c1 [Example 80160] has a pIC50 (IC50 range class) of 5.00 to 6.00.
With CC(=O)N1CCN(CCCOc2cccc(-c3cccc(OCCCN4CC[C@@H](O)C4)c3C)c2C)CC1 [Example 2001, (R)-1-(4-(3-((3′-(3-(3-hydroxypyrrolidin-1-yl)propoxy)-2,2′-dimethyl-[1,1′-biphenyl]-3-yl)oxy)propyl)piperazin-1-yl)ethan-1-one] the pIC50 (IC50 range class) was 7.05 to 7.70.
In the case of Cc1c(COc2cc(OCc3ccc(-n4cccn4)nc3)c(CN(C)C(CO)CO)cc2Cl)cccc1-c1cccc(COc2cc(OCc3ccc(-n4cccn4)nc3)c(CN(C)C(CO)CO)cc2Cl)c1C [Example 5028, 2,2′-((((((2,2′-dimethyl-[1,1′-biphenyl]-3,3′-diyl)bis(methylene))bis(oxy))bis(2-((6-(1H-pyrazol-1-yl)pyridin-3-yl)methoxy)-5-chloro-4,1-phenylene))bis(methylene))bis(methylazanediyl))bis(propane-1,3-diol)], the pIC50 (IC50 range class) was 6.00 to 7.05.
In the case of Cc1cc(OCc2cccc(-c3cccc(COc4cc(OCc5cncc(C#N)c5)c(CNCCC(=O)O)cc4Cl)c3C)c2C)c(Cl)cc1CNCCC(=O)O [Example 5504, 3-((4-((3′-((4-(((2-carboxyethyl)amino)methyl)-2-chloro-5-((5-cyanopyridin-3-yl)methoxy)phenoxy)methyl)-2,2′-dimethyl-[1,1′-biphenyl]-3-yl)methoxy)-5-chloro-2-methylbenzyl)amino)propanoic acid], the pIC50 (IC50 range class) was 7.70 to 10.40.
